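48-hour exposure; five concentrations; linearly interpolated endpoints. GI50 is the concentration that inhibits growth by half. TGI denotes the concentration required for complete inhibition of growth.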
Assays:
Test in all cases: inhibition of tumour cell growth, NCI panel, 48 h; in the data active = GI50 below about 0.43 µM; inactive = the rest
KM12 colon = test system: KM12 colon
UO-31 renal = test system: UO-31 renal
MDA-MB-231 breast = test system: MDA-MB-231 breast
OVCAR-5 ovarian = test system: OVCAR-5 ovarian
IGROV1 ovarian = test system: IGROV1 ovarian
RPMI-8226 leukemia = test system: RPMI-8226 leukemia
UACC-257 melanoma = test system: UACC-257 melanoma
K-562 leukemia = test system: K-562 leukemia
PC-3 prostate = test system: PC-3 prostate
NCI-H226 lung = test system: NCI-H226 lung
COLO 205 colon = test system: COLO 205 colon
EKVX NSCLC = test system: EKVX NSCLC
TK-10 renal = test system: TK-10 renal
NCI/ADR-RES ovarian = test system: NCI/ADR-RES ovarian
SW-620 colon = test system: SW-620 colon
HCT-15 colon = test system: HCT-15 colon
NCI-H460 lung = test system: NCI-H460 lung
OVCAR-8 ovarian = test system: OVCAR-8 ovarian
HOP-62 NSCLC = test system: HOP-62 NSCLC
HS 578T breast = test system: HS 578T breast
SR leukemia = test system: SR leukemia
HCT-116 colon = test system: HCT-116 colon
M14 melanoma = test system: M14 melanoma
SK-MEL-28 melanoma = test system: SK-MEL-28 melanoma
DU-145 prostate = test system: DU-145 prostate
HT29 colon = test system: HT29 colon
ACHN renal = test system: ACHN renal
A549 NSCLC = test system: A549 NSCLC
A498 renal = test system: A498 renal
BT-549 breast = test system: BT-549 breast
U251 CNS = test system: U251 CNS
SNB-75 CNS = test system: SNB-75 CNS
MCF7 breast = test system: MCF7 breast
MDA-MB-435 = test system: MDA-MB-435
786-0 renal = test system: 786-0 renal
CCRF-CEM leukemia = test system: CCRF-CEM leukemia
LOX IMVI melanoma = test system: LOX IMVI melanoma
SK-OV-3 ovarian = test system: SK-OV-3 ovarian
SK-MEL-2 melanoma = test system: SK-MEL-2 melanoma
SNB-19 CNS = test system: SNB-19 CNS
OVCAR-3 ovarian = test system: OVCAR-3 ovarian
UACC-62 melanoma = test system: UACC-62 melanoma
HCC-2998 colon = test system: HCC-2998 colon
SK-MEL-5 melanoma = test system: SK-MEL-5 melanoma
SF-539 CNS = test system: SF-539 CNS
SF-268 CNS = test system: SF-268 CNS
MALME-3M melanoma = test system: MALME-3M melanoma
NCI-H522 lung = test system: NCI-H522 lung
HL-60(TB) leukemia = test system: HL-60(TB) leukemia
NCI-H23 lung = test system: NCI-H23 lung
SF-295 CNS = test system: SF-295 CNS
OVCAR-4 ovarian = test system: OVCAR-4 ovarian
MOLT-4 leukemia = test system: MOLT-4 leukemia
SN12C renal = test system: SN12C renal

COC(=O)C12CC(NC(=O)c3csc([C@@H](C[C@H](C(C)C)N(C)C(=O)[C@@H](NC(=O)[C@H]4CCCCN4C)C4CC4)OC(C)=O)n3)(C1)C2
> 8790 nM: TGI (CCRF-CEM leukemia)
201 nM: TGI (COLO 205 colon)
inactive: GI50 (UO-31 renal) 614 nM | GI50 (UACC-257 melanoma) > 16700 nM | GI50 (NCI-H226 lung) 582 nM | GI50 (TK-10 renal) 1150 nM | GI50 (NCI/ADR-RES ovarian) 4690 nM | GI50 (OVCAR-4 ovarian) 427 nM
active: GI50 (KM12 colon) 36.3 nM | GI50 (MDA-MB-231 breast) 43.5 nM | GI50 (OVCAR-5 ovarian) 135 nM | GI50 (IGROV1 ovarian) 12.6 nM | GI50 (RPMI-8226 leukemia) 6.74 nM | GI50 (K-562 leukemia) 5.49 nM | GI50 (PC-3 prostate) 36.6 nM | GI50 (COLO 205 colon) 9.72 nM | GI50 (EKVX NSCLC) 69.6 nM | GI50 (SW-620 colon) 11.4 nM | GI50 (HCT-15 colon) 112 nM | GI50 (NCI-H460 lung) 47.2 nM | GI50 (OVCAR-8 ovarian) 50.1 nM | GI50 (HOP-62 NSCLC) 34.7 nM | GI50 (HS 578T breast) 16.9 nM | GI50 (SR leukemia) 1.93 nM | GI50 (HCT-116 colon) 22.8 nM | GI50 (M14 melanoma) 9.88 nM | GI50 (SK-MEL-28 melanoma) 148 nM | GI50 (DU-145 prostate) 15.4 nM | GI50 (HT29 colon) 13.4 nM | GI50 (ACHN renal) 123 nM | GI50 (A549 NSCLC) 101 nM | GI50 (A498 renal) 83.3 nM | GI50 (BT-549 breast) 7.66 nM | GI50 (U251 CNS) 47.4 nM | GI50 (SNB-75 CNS) 5.48 nM | GI50 (MCF7 breast) 8.13 nM | GI50 (MDA-MB-435) 2.43 nM | GI50 (786-0 renal) 39.4 nM | GI50 (CCRF-CEM leukemia) 6.13 nM | GI50 (LOX IMVI melanoma) 14.4 nM | GI50 (SK-OV-3 ovarian) 73.5 nM | GI50 (SK-MEL-2 melanoma) 33 nM | GI50 (SNB-19 CNS) 58.1 nM | GI50 (OVCAR-3 ovarian) 5.9 nM | GI50 (UACC-62 melanoma) 15.3 nM | GI50 (HCC-2998 colon) 85.1 nM | GI50 (SK-MEL-5 melanoma) 23 nM | GI50 (SF-539 CNS) 8.53 nM | GI50 (SF-268 CNS) 23 nM | GI50 (MALME-3M melanoma) 35.7 nM | GI50 (NCI-H522 lung) 3.75 nM | GI50 (HL-60(TB) leukemia) 2.43 nM | GI50 (NCI-H23 lung) 88.5 nM | GI50 (SF-295 CNS) 42.2 nM | GI50 (MOLT-4 leukemia) 7.45 nM | GI50 (SN12C renal) 20.7 nM
3150 nM: TGI (NCI-H522 lung)
> 4460 nM: TGI (A498 renal)
449 nM: TGI (SK-MEL-5 melanoma)
61.3 nM: TGI (SF-539 CNS)
2720 nM: TGI (BT-549 breast)
> 16700 nM: TGI (KM12 colon) | TGI (UO-31 renal) | TGI (MDA-MB-231 breast) | TGI (OVCAR-5 ovarian) | TGI (IGROV1 ovarian) | TGI (RPMI-8226 leukemia) | TGI (UACC-257 melanoma) | TGI (K-562 leukemia) | TGI (PC-3 prostate) | TGI (NCI-H226 lung) | TGI (EKVX NSCLC) | TGI (TK-10 renal) | TGI (NCI/ADR-RES ovarian) | TGI (SW-620 colon) | TGI (HCT-15 colon) | TGI (NCI-H460 lung) | TGI (OVCAR-8 ovarian) | TGI (HOP-62 NSCLC) | TGI (HS 578T breast) | TGI (SR leukemia) | TGI (HCT-116 colon) | TGI (SK-MEL-28 melanoma) | TGI (DU-145 prostate) | TGI (HT29 colon) | TGI (ACHN renal) | TGI (A549 NSCLC) | TGI (U251 CNS) | TGI (SNB-75 CNS) | TGI (MCF7 breast) | TGI (786-0 renal) | TGI (LOX IMVI melanoma) | TGI (SK-OV-3 ovarian) | TGI (SK-MEL-2 melanoma) | TGI (SNB-19 CNS) | TGI (UACC-62 melanoma) | TGI (HCC-2998 colon) | TGI (SF-268 CNS) | TGI (MALME-3M melanoma) | TGI (NCI-H23 lung) | TGI (SF-295 CNS) | TGI (OVCAR-4 ovarian) | TGI (MOLT-4 leukemia) | TGI (SN12C renal)
> 5280 nM: TGI (M14 melanoma)
8.76 nM: TGI (HL-60(TB) leukemia)
19.7 nM: TGI (MDA-MB-435)
